{"source": "patent US12514832B2", "about": "“Methods for using low-dose colchicine after myocardial infarction” (INSTITUT DE CARDIOLOGIE DE MONTREAL, priority 2019, dated 2026)", "tested_on": "rs6916345 (LINC01108/JARID2, chromosome 6); rs10128117 (SEPHS1, chromosome 10)", "conditions": "colchicine treatment arm; for HR, gastrointestinal disorders / coef, gastrointestinal disorders: males + females", "key": {"[1]": {"conditions": "rs10128117 chr 10, EA A vs NEA T"}, "[2]": {"conditions": "rs10128117 effect allele A vs T"}, "[3]": {"conditions": "rs10906346 effect allele A vs G"}, "[4]": {"conditions": "rs11258319 effect allele T vs C"}, "[5]": {"conditions": "rs12210439 chr 6, EA A vs NEA G"}, "[6]": {"conditions": "rs41291319 effect allele A vs G"}, "[7]": {"conditions": "rs41291321 effect allele C vs G"}, "[8]": {"conditions": "rs58260827 effect allele CA vs C"}, "[9]": {"conditions": "rs61851591 chr 10, EA A vs NEA C"}, "[10]": {"conditions": "rs61851591 effect allele A vs C"}, "[11]": {"conditions": "rs61851592 chr 10, EA T vs NEA C"}, "[12]": {"conditions": "rs61851592 effect allele T vs C"}, "[13]": {"conditions": "rs61851593 chr 10, EA C vs NEA T"}, "[14]": {"conditions": "rs61851593 effect allele C vs T"}, "[15]": {"conditions": "rs61851598 effect allele A vs G"}, "[16]": {"conditions": "rs61851599 effect allele T vs C"}, "[17]": {"conditions": "rs70993041 chr 6, EA TAA vs NEA T"}, "[18]": {"conditions": "rs74795203 chr 10, EA G vs NEA A"}, "[19]": {"conditions": "rs74795203 effect allele G vs A"}, "[20]": {"conditions": "rs77006996 chr 10, EA T vs NEA C"}, "[21]": {"conditions": "rs77006996 effect allele T vs C"}, "[22]": {"conditions": "rs117874450 effect allele T vs C"}, "[23]": {"conditions": "rs552621122 effect allele A vs ATT"}}, "note": "Read-outs that look alike come from different tables or passages of the source.", "data": [{"smiles": "COc1cc2c(c(OC)c1OC)-c1ccc(OC)c(=O)cc1[C@@H](NC(C)=O)CC2", "note": "[Colchicine, colchicine]", "values": [{"measurement": "HR, gastrointestinal disorders", "setting": "rs7902331 effect allele T vs C", "result": 2.4}, {"measurement": "coef, gastrointestinal disorders", "setting": "rs7902331 effect allele T vs C", "result": 0.8596}, {"measurement": "HR, gastrointestinal disorders", "setting": "rs7916194 effect allele T vs A", "result": 2.5}, {"measurement": "coef, gastrointestinal disorders", "setting": "rs7916194 effect allele T vs A", "result": 0.9034}, {"measurement": "HR, gastrointestinal disorders", "setting": "rs7917549 effect allele A vs G", "result": 2.4}, {"measurement": "coef, gastrointestinal disorders", "setting": "rs7917549 effect allele A vs G", "result": 0.8864}, {"measurement": "HR, gastrointestinal disorders", "setting": "rs7919509 effect allele C vs T", "result": 2.5}, {"measurement": "coef, gastrointestinal disorders", "setting": "rs7919509 effect allele C vs T", "result": 0.9034}, {"measurement": "Coefficient, genetic association with gastrointestinal disorders", "setting": "rs9349955 chr 6, EA T vs NEA C", "result": "−0.633"}, {"measurement": "HR (hazard ratio), genetic association with gastrointestinal disorders", "setting": "rs9349955 chr 6, EA T vs NEA C", "result": 0.53}, {"measurement": "Coefficient, genetic association with gastrointestinal disorders", "setting": "rs9358044 chr 6, EA T vs NEA A", "result": "−0.610"}, {"measurement": "HR (hazard ratio), genetic association with gastrointestinal disorders", "setting": "rs9358044 chr 6, EA T vs NEA A", "result": 0.54}, {"measurement": "Coefficient, genetic association with gastrointestinal disorders", "setting": "rs9382993 chr 6, EA C vs NEA T", "result": "−0.636"}, {"measurement": "HR (hazard ratio), genetic association with gastrointestinal disorders", "setting": "rs9382993 chr 6, EA C vs NEA T", "result": 0.53}, {"measurement": "HR, gastrointestinal disorders", "setting": "rs9423893 effect allele A vs G", "result": 2.4}, {"measurement": "coef, gastrointestinal disorders", "setting": "rs9423893 effect allele A vs G", "result": 0.8599}, {"measurement": "Coefficient, genetic association with gastrointestinal disorders", "setting": "rs9476616 chr 6, EA G vs NEA C", "result": "−0.607"}, {"measurement": "HR (hazard ratio), genetic association with gastrointestinal disorders", "setting": "rs9476616 chr 6, EA G vs NEA C", "result": 0.55}, {"measurement": "Coefficient, genetic association with gastrointestinal disorders", "setting": "[1]", "result": 0.934}, {"measurement": "HR (hazard ratio), genetic association with gastrointestinal disorders", "setting": "[1]", "result": 2.55}, {"measurement": "HR, gastrointestinal disorders", "setting": "[2]", "result": 2.5}, {"measurement": "coef, gastrointestinal disorders", "setting": "[2]", "result": 0.9342}, {"measurement": "HR, gastrointestinal disorders", "setting": "[3]", "result": 2.5}, {"measurement": "coef, gastrointestinal disorders", "setting": "[3]", "result": 0.902}, {"measurement": "HR, gastrointestinal disorders", "setting": "[4]", "result": 2.4}, {"measurement": "coef, gastrointestinal disorders", "setting": "[4]", "result": 0.8718}, {"measurement": "Coefficient, genetic association with gastrointestinal disorders", "setting": "[5]", "result": "−0.594"}, {"measurement": "HR (hazard ratio), genetic association with gastrointestinal disorders", "setting": "[5]", "result": 0.55}, {"measurement": "HR, gastrointestinal disorders", "setting": "[6]", "result": 2.4}, {"measurement": "coef, gastrointestinal disorders", "setting": "[6]", "result": 0.8843}, {"measurement": "HR, gastrointestinal disorders", "setting": "[7]", "result": 2.4}, {"measurement": "coef, gastrointestinal disorders", "setting": "[7]", "result": 0.8594}, {"measurement": "HR, gastrointestinal disorders", "setting": "[8]", "result": 2.4}, {"measurement": "coef, gastrointestinal disorders", "setting": "[8]", "result": 0.8895}, {"measurement": "Coefficient, genetic association with gastrointestinal disorders", "setting": "[9]", "result": 0.917}, {"measurement": "HR (hazard ratio), genetic association with gastrointestinal disorders", "setting": "[9]", "result": 2.50}, {"measurement": "HR, gastrointestinal disorders", "setting": "[10]", "result": 2.5}, {"measurement": "coef, gastrointestinal disorders", "setting": "[10]", "result": 0.9168}, {"measurement": "Coefficient, genetic association with gastrointestinal disorders", "setting": "[11]", "result": 0.921}, {"measurement": "HR (hazard ratio), genetic association with gastrointestinal disorders", "setting": "[11]", "result": 2.51}, {"measurement": "HR, gastrointestinal disorders", "setting": "[12]", "result": 2.5}, {"measurement": "coef, gastrointestinal disorders", "setting": "[12]", "result": 0.9206}, {"measurement": "Coefficient, genetic association with gastrointestinal disorders", "setting": "[13]", "result": 0.921}, {"measurement": "HR (hazard ratio), genetic association with gastrointestinal disorders", "setting": "[13]", "result": 2.51}, {"measurement": "HR, gastrointestinal disorders", "setting": "[14]", "result": 2.5}, {"measurement": "coef, gastrointestinal disorders", "setting": "[14]", "result": 0.9206}, {"measurement": "HR, gastrointestinal disorders", "setting": "[15]", "result": 2.4}, {"measurement": "coef, gastrointestinal disorders", "setting": "[15]", "result": 0.8657}, {"measurement": "HR, gastrointestinal disorders", "setting": "[16]", "result": 2.4}, {"measurement": "coef, gastrointestinal disorders", "setting": "[16]", "result": 0.8665}, {"measurement": "Coefficient, genetic association with gastrointestinal disorders", "setting": "[17]", "result": "−0.632"}, {"measurement": "HR (hazard ratio), genetic association with gastrointestinal disorders", "setting": "[17]", "result": 0.53}, {"measurement": "Coefficient, genetic association with gastrointestinal disorders", "setting": "[18]", "result": 0.921}, {"measurement": "HR (hazard ratio), genetic association with gastrointestinal disorders", "setting": "[18]", "result": 2.51}, {"measurement": "HR, gastrointestinal disorders", "setting": "[19]", "result": 2.5}, {"measurement": "coef, gastrointestinal disorders", "setting": "[19]", "result": 0.9207}, {"measurement": "Coefficient, genetic association with gastrointestinal disorders", "setting": "[20]", "result": 0.917}, {"measurement": "HR (hazard ratio), genetic association with gastrointestinal disorders", "setting": "[20]", "result": 2.50}, {"measurement": "HR, gastrointestinal disorders", "setting": "[21]", "result": 2.5}, {"measurement": "coef, gastrointestinal disorders", "setting": "[21]", "result": 0.9167}, {"measurement": "HR, gastrointestinal disorders", "setting": "[22]", "result": 2.4}, {"measurement": "coef, gastrointestinal disorders", "setting": "[22]", "result": 0.8656}, {"measurement": "HR, gastrointestinal disorders", "setting": "[23]", "result": 2.4}, {"measurement": "coef, gastrointestinal disorders", "setting": "[23]", "result": 0.8864}]}]}
